# Square brackets hold non-standard residues; d marks the D form. Peptide text beside a SMILES is read from it. * marks the point of attachment. ξ: configuration not given here. Adenosine(5'-uronoyl) = Nc1ncnc2c1ncn2[C@@H]1O[C@H](C(=O)*)[C@@H](O)[C@H]1O; Biotin = O=C1N[C@H]2[C@H](CS[C@H]2CCCCC(=O)*)N1; NHCH2CH2OCH2CH2OMe = COCCOCCN*; NH(CH2)6NH2 = NCCCCCCN*; ξK = NCCCCC(N)C(=O)O; Ahx = NCCCCCC(=O)O
# Assay: Inhibition of cAMP dependent Protein kinase A (PKA) catalytic subunit from bovine heart
# Design: species or system Bos taurus
row,Structure (SMILES),IC50 [nM]
1,O=S(=O)(NCCNC/C=C/c1ccc(Br)cc1)c1cccc2cnccc12,135
2,N=C(N)NCCC[C@H](NC(=O)[C@H](CCCNC(=N)N)NC(=O)[C@H](CCCNC(=N)N)NC(=O)[C@H](CCCNC(=N)N)NC(=O)[C@H](CCCNC(=N)N)NC(=O)[C@H](CCCNC(=N)N)NC(=O)CCCCCNC(=O)[C@H]1O[C@@H](n2cnc3c(N)ncnc32)[C@H](O)[C@@H]1O)C(=O)O,700

# The remaining lines, values ahead:
row,IC50 [nM],Structure (SMILES)
1,680,NCCCCCCNC(=O)[C@H](CCCN=C(N)N)NC(=O)[C@H](CCCN=C(N)N)NC(=O)[C@H](CCCN=C(N)N)NC(=O)[C@H](CCCN=C(N)N)NC(=O)CCCCCNC(=O)[C@H]1O[C@@H](n2cnc3c(N)ncnc32)[C@H](O)[C@@H]1O ({Adenosine(5'-uronoyl)-Ahx}-RRRR-{NH(CH2)6NH2})
2,1200,COCCOCCNC(=O)C(CCCCNC(=O)CCCC[C@@H]1SC[C@@H]2NC(=O)N[C@@H]21)NC(=O)[C@H](CCCN=C(N)N)NC(=O)[C@H](CCCN=C(N)N)NC(=O)[C@H](CCCN=C(N)N)NC(=O)[C@H](CCCN=C(N)N)NC(=O)CCCCCNC(=O)[C@H]1O[C@@H](n2cnc3c(N)ncnc32)[C@H](O)[C@@H]1O (stereo not given in full) ({Adenosine(5'-uronoyl)-Ahx}-RRRR[ξK](Biotin)-NHCH2CH2OCH2CH2OMe)
3,460,COCCOCCNC(=O)C(CCCCN)NC(=O)[C@H](CCCN=C(N)N)NC(=O)[C@H](CCCN=C(N)N)NC(=O)[C@H](CCCN=C(N)N)NC(=O)[C@H](CCCN=C(N)N)NC(=O)CCCCCNC(=O)[C@H]1O[C@@H](n2cnc3c(N)ncnc32)[C@H](O)[C@@H]1O (stereo not given in full) ({Adenosine(5'-uronoyl)-Ahx}-RRRR[ξK]-NHCH2CH2OCH2CH2OMe)
